In patent US20250214960A1, “COMPOUNDS HAVING ACTIVITY OF DEGRADING GSPT1 AND APPLICATION THEREOF” (SHANGHAI MEIZER PHARMACEUTICALS CO., LTD., priority 2021, published 2025):
Like-named read-outs stand apart in the source and are kept apart here.

Key:
Format in all cases: cell-based
[1] = test system: Jeko-1 cells; test: CCK8 method, inhibition of Jeko-1 cell proliferation; conditions: Homo sapiens; Jeko-1, 72 hours; read-out: Cellular proliferation inhibition IC50
Method: Test Example 3: CCK8 Method for Detecting Inhibition of Jeko-1 Cell Proliferation by Compound of Formula
Cell culture: The Jeko-1 cell line (human lymphoma cells) was cultured in RPMI-1640 complete medium containing […] and 1% penicillin streptomycin, and incubated in an incubator at 37° C., 5% CO2, and saturated humidity.
Cell laying: Jeko-1 cells in logarithmic growth phase was taken, centrifuged, and an appropriate amount of complete culture medium was added to obtain a single-cell suspension, a hemocytometer was used for cell counting, and a cell suspension of 1.5×10^5 cells/mL was prepared, the cells were inoculated into a 96 well culture plate at a rate of 100 μL cell suspension per well and incubated in a CO2 cell incubator for 24 hours.
CCK-8 detection: 72 hours after administration, 10% CCK-8 solution was added to each well, placed in a CO2 cell culture incubator, and incubated for 1-4 hours. The absorbance of each well was measured using a microplate reader at 450 nm.
Calculation of cellular proliferation inhibition rate:
Cellular proliferation inhibition rate (%)=[(Ac−As)/(Ac−Ab)]×100% • As: absorbance in experimental wells (including cells, culture medium, CCK-8 solution, and drug solution) • Ac: absorbance in control wells (including cells, culture medium, CCK-8 solution, without drugs) • Ab: absorbance in blank wells (including culture medium, CCK-8 solution, without cells or drugs)

[2] = test system: HL-60 cells; test: CTG method, inhibition of HL-60 cell proliferation; conditions: Homo sapiens; HL-60, 72 hours; read-out: Cellular proliferation inhibition IC50
Method: (§1) Test Example 2: CTG Method for Detecting the Inhibitory Effect of Compounds of Formula on the Proliferation of HNT 34 or HL-60 Cells
(§2) HNT-34 or HL-60 cells were taken and cultured in RPMI1640 medium containing 20% fetal bovine serum. The cells were inoculated on a 96 well plate, with 1×10^4 cells per well, and incubated at 37° C. in a […] incubator. After adding the test compound, it was incubated for 72 hours. Then an appropriate amount of CTG reagent was added, the luminescence value was measured, and the inhibition rate was calculated.

[3] = target: T1, GSPT1 protein (Homo sapiens, UniProt P15170+Q96SW2); test: Western blot detection of degradation activity of GSPT1 protein in Jeko-1 cells; conditions: JeKo-1, 24 h, read-out: GSPT1 degradation rate (%)
T1 construct: endogenous in cells; host or cells: Jeko-1
T1 sequence (P15170 whole entry): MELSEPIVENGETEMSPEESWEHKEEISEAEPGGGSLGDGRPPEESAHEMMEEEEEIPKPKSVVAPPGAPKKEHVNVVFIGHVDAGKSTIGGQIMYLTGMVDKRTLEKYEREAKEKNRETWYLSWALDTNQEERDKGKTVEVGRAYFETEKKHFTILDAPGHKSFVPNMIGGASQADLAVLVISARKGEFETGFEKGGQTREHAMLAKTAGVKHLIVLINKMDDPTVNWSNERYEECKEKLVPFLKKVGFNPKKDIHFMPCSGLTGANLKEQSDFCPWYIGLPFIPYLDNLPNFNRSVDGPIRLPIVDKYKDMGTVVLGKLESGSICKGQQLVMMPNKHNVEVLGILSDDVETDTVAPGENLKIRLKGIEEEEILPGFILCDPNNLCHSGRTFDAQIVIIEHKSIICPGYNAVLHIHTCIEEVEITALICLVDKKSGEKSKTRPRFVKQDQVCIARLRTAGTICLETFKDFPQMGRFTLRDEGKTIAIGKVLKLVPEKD
T1 sequence (Q96SW2 whole entry): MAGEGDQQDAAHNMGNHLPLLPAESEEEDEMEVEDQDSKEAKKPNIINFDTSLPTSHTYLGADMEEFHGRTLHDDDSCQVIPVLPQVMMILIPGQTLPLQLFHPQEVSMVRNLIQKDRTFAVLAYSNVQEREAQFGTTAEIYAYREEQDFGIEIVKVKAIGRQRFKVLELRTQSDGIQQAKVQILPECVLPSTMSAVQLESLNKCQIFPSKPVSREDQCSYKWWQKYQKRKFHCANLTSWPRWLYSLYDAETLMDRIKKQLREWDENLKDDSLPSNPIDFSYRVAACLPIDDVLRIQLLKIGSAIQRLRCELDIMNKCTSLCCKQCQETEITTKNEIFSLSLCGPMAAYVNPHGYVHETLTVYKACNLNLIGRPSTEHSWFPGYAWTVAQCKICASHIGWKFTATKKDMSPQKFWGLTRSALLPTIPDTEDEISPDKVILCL
T1 sequence (Q16531 whole entry partner): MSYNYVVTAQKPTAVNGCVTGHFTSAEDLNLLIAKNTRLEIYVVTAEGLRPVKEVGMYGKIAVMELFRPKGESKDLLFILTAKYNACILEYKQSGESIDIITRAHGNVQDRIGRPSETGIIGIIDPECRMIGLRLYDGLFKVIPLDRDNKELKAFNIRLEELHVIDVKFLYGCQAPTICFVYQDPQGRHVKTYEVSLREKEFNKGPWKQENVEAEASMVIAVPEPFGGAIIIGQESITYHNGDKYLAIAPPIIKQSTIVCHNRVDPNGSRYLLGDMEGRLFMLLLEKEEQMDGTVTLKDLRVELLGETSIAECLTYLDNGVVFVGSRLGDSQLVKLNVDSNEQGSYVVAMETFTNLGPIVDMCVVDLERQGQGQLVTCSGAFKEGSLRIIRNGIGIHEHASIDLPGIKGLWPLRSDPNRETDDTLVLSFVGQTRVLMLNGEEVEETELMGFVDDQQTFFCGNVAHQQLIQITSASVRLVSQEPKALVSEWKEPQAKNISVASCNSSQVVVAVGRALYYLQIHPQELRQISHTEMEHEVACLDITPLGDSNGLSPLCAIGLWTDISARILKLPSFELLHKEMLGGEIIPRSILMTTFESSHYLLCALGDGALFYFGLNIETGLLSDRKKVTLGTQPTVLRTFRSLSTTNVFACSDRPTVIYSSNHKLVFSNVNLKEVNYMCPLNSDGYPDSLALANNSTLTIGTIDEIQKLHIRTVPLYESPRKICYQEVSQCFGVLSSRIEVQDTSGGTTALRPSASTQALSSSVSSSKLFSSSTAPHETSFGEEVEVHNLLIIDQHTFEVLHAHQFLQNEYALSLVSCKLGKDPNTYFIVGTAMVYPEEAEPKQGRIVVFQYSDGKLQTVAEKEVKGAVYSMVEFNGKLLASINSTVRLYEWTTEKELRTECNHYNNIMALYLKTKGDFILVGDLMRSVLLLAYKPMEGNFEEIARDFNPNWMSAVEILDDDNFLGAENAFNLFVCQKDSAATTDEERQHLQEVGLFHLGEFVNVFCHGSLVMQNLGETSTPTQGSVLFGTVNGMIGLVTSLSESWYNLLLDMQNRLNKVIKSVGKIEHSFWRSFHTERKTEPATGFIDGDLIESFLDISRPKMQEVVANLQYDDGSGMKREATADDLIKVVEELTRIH
Method: Test Example 1: Western Blot Detection of Degradation Activity of GSPT1 Protein by the Compounds
Cell line: Jeko-1 cell line was cultured with an RPMI1640 media containing 20% fetal bovine serum in an incubator at 37° C., 5% CO2, and saturated humidity.
DMSO control group and test compound (concentration shown in the table below) were set up, after processing for 24 hours, the cells were collected, pre-cooled cell lysate was added and left on ice for 10 minutes. The total protein of the cells was extracted, and the protein concentration was measured and quantified using the BCA method. Routine gel preparation, sample loading, electrophoresis were conducted, then the membrane was transferred, and sealed, wherein the primary antibody was diluted with a blocking solution at 1:500-5000. The membrane was immersed in the diluted primary antibody and incubated overnight at 4° C. After rinsing, the secondary antibody was diluted with a sealing solution at 1:10000-20000, the membrane was immersed in the diluted secondary antibody, and incubated at room temperature for 45 minutes. After rinsing, the results were tested on ODYSSEY (Li-COR). GAPDH was used as an internal reference control.
Image J software was used to perform gray level analysis on each band and the degradation rate of GSPT1 protein by the compounds was calculated.

[4] = test system: HNT-34 cells; test: CTG method, inhibition of HNT-34 cell proliferation; conditions: HNT-34, 72 hours; read-out: Cellular proliferation inhibition IC50
Method: as §1, §2

| IC50 [2] | inhibition at 0.1 µM ([3]; 100 nM, Jeko-1 cells, 24 hours) | inhibition at 10 µM ([3]; 10 μM, Jeko-1 cells, 24 hours) | SMILES | IC50 [1] | IC50 [4] | inhibition at 0.1 µM [3] | inhibition at 10 µM [3] |
| --- | --- | --- | --- | --- | --- | --- | --- |
| 8.3 nM | 90.6% | 93.6% | CC(C)(C)OC(=O)N[C@@H](CC1CCCCC1)C(=O)NCc1ccc2c(c1)CN(C1CCC(=O)NC1=O)C2=O (stereo partly drawn) [Compound 5-46, Tert butyl ((2S)-3-cyclohexyl-1-(2-((2,6-dioxopyridin-3-yl)-1-oxoisoidoline-5-yl)methyl)amino)-1-oxopropan-2-yl) carbamate] | 0.2 nM | 3.7 nM |  |  |
|  | 100% | 100% | CC(C)(C)OC(=O)NC(C(=O)NCc1ccc2c(c1)CN(C1CCC(=O)NC1=O)C2=O)c1ccccc1F (centres unmarked) [Compound 5-5, Tert butyl (2-((2-(2,6-dioxypiperidin-3-yl)-1-oxoisoidoline-5-yl)methyl)amino)-1-(2-fluorophenyl)-2-oxoethyl) carbamate] | 0.2 nM |  |  |  |
| 25.2 nM | 79% | 97% | O=C1CCC(N2Cc3cc(CNC(=O)[C@H](CC4CCCCC4)NC(=O)CC4CCCC4)ccc3C2=O)C(=O)N1 (stereo partly drawn) [Compound 5-92, (2S)-3-cyclohexyl-2-(2-cyclopentylacetamido)-N-((2-(2,6-dioxypiperidin-3-yl)-1-oxoisoindoline-5-yl)methyl) propionamide] |  | 25.2 nM |  |  |
| 15 nM | 75% | 98.1% | CC(C)(C)OC(=O)N[C@H](C(=O)NCc1ccc2c(c1)CN(C1CCC(=O)NC1=O)C2=O)C1CCCC1 (stereo partly drawn) [Compound 5-57, Tert butyl ((1S)-1-cyclopentyl-2-((2-(2,6-dioxopyridin-3-yl)-1-oxoisoidoline-5-yl)methyl)amino)-2-oxoethyl) carbamate] |  | 7.5 nM |  |  |
|  | 96.9% | 96.7% | CC(C)(C)OC(=O)NCC(C(=O)NCc1ccc2c(c1)CN(C1CCC(=O)NC1=O)C2=O)c1ccc(Cl)cc1 (centres unmarked) [Compound 5-41, Tert butyl (2-(4-chlorophenyl)-3-((2-(2,6-dioxypiperidin-3-yl)-1-oxoisoindoline-5-yl)methyl)amino)-3-oxopropyl) carbamate] | 0.04 nM |  |  |  |
|  | 97.8% | 99.5% | CC(C)(C)OC(=O)N[C@@H](Cc1ccccc1)C(=O)NCc1ccc2c(c1)CN(C1CCC(=O)NC1=O)C2=O (stereo partly drawn) [Compound 5-37, Tert butyl ((2S)-1-(2-(2,6-dioxypiperidin-3-yl)-1-oxoisoindoline-5-yl)methyl) amino)-1-oxo-3-phenylprop-2-yl) carbamate] | 0.6 nM |  |  |  |
| 35.4 nM | 52% | 80% | CC(C)CC(CNC(=O)OC(C)(C)C)C(=O)NCc1ccc2c(c1)CN(C1CCC(=O)NC1=O)C2=O (centres unmarked) [Compound 5-33] |  | 32.7 nM |  |  |
| 12.4 nM | 94% | 100% | CC(C)(C)OC(=O)N[C@H](C(=O)NCc1ccc2c(c1)CN(C1CCC(=O)NC1=O)C2=O)c1ccc(Br)cc1 (stereo partly drawn) [Compound 5-7, Tert butyl ((1S)-1-(4-bromophenyl)-2-((2-(2,6-dioxopyridin-3-yl)-1-oxoisoidoline-5-yl)methyl)amino)-2-oxoethyl) carbamate] |  | 8.7 nM |  |  |
| 12.5 nM | 84% | 99% | CN(C(=O)OC(C)(C)C)[C@@H](C(=O)NCc1ccc2c(c1)CN(C1CCC(=O)NC1=O)C2=O)c1ccccc1 (stereo partly drawn) [Compound 5-31, Tert butyl ((1R)-2-((2-(2,6-dioxypiperidin-3-yl)-1-oxoisoindoline-5-yl)methyl)amino)-2-oxo-1-phenylethy 1) (methyl) carbamate] |  | 6.6 nM |  |  |

Continued, compound first:

| SMILES | IC50 [2] | inhibition at 0.1 µM ([3]; 100 nM, Jeko-1 cells, 24 hours) | inhibition at 10 µM ([3]; 10 μM, Jeko-1 cells, 24 hours) | IC50 [1] | IC50 [4] | inhibition at 0.1 µM [3] | inhibition at 10 µM [3] |
| --- | --- | --- | --- | --- | --- | --- | --- |
| CC(C)(C)OC(=O)N[C@H](C(=O)NCc1ccc2c(c1)CN(C1CCC(=O)NC1=O)C2=O)c1ccc(F)c(Cl)c1 (some centres unmarked) [Compound 4-152, Tert butyl (1-(3-chloro-4-fluorophenyl)-2-((2-(2,6-dioxopyridin-3-yl)-1-oxoisoindoline-5-yl)methyl)amino)-2-oxoethyl) carbamate] | 7.9 nM | 93% | 82% | 0.7 nM | 6.6 nM |  |  |
| CC(C)(C)OC(=O)N[C@H](C(=O)NCc1ccc2c(c1)CN(C1CCC(=O)NC1=O)C2=O)c1ccccc1 (stereo partly drawn) [Compound 4-87, Tert butyl ((1S)-2-((2-(2,6-dioxopiperidin-3-yl)-1-oxoisoindolin-5-yl)methyl)amino)-2-oxo-1-phenylethyl) carbamate] |  | 89% | 93% | 0.2 nM |  |  |  |
| CC(C)(C)OC(=O)N[C@H](C(=O)NCc1ccc2c(c1)CN(C1CCC(=O)NC1=O)C2=O)c1ccc(Cl)cc1 (stereo partly drawn) [Compound 4-150, Tert butyl ((1S)-1-(4-chlorophenyl)-2-((2-(2,6-dioxopyridin-3-yl)-1-oxoisoidoline-5-yl)methyl)amino)-2-oxoethyl) carbamate] | 9.2 nM | 90% | 99% | 3.9 nM | 6.5 nM |  |  |
| O=C1CCC(N2Cc3cc(CNC(=O)[C@@H](NC(=O)OC4CCCC4)c4ccccc4)ccc3C2=O)C(=O)N1 (stereo partly drawn) [Compound 4-159, Cyclopentyl (1S)-2-((2-(2,6-dioxypiperidin-3-yl)-1-oxoisoindoline-5-yl)methyl)amino)-2-oxo-1-phenylethyl) carbamate] |  |  |  | 0.02 nM |  | 93% | 99% |
| CC(C)C1CC[C@H](C)C[C@@H]1OC(=O)N[C@H](C(=O)NCc1ccc2c(c1)CN(C1CCC(=O)NC1=O)C2=O)c1ccccc1 (some centres unmarked) [Compound 4-175] |  |  |  | 0.03 nM |  | 93% | 90% |
| CC(C)C[C@@H](NC(=O)OC(C)(C)C)C(=O)NCc1ccc2c(c1)CN(C1CCC(=O)NC1=O)C2=O (stereo partly drawn) [Compound 4-123, Tert butyl ((2R)-1-((2-(2,6-dioxypiperidin-3-yl)-1-oxoidoline-5-yl)methyl)amino)-4-methyl-1-oxolan-2-yl) carbamate] | 28.9 nM | 79.9% | 92.7% |  | 26.9 nM |  |  |
| CN(C(=O)OC1CCCC1)[C@H](C(=O)NCc1ccc2c(c1)CN(C1CCC(=O)NC1=O)C2=O)c1ccccc1 (stereo partly drawn) [Compound 5-36, Cyclopentyl ((1S)-2-((2-(2,6-dioxypiperidin-3-yl)-1-oxoisoindoline-5-yl)methyl)amino)-2-oxo-1-phenylethyl) (methyl) carbamate] |  |  |  | 1 nM |  | 97% | 97% |
| CC(C)(C)OC(=O)NC(C(=O)NCc1ccc2c(c1)CN(C1CCC(=O)NC1=O)C2=O)c1ccc(Cl)c(Cl)c1 (centres unmarked) [Compound 4-151, Tert butyl (1-(3,4-dichlorophenyl)-2-((2-(2,6-dioxopyridin-3-yl)-1-oxoisoindoline-5-yl)methyl)amino)-2-oxoethyl) carbamate] | 11.6 nM | 77% | 95% | 1.3 nM | 7.8 nM |  |  |
